Laboratory results published in patent US20210069151A1, “[…] PHARMACEUTICAL COMBINATION OF THE ACTIVE ENANTIOMER S-KETOROLAC TR[…] TRAMADOL CHLORHYDRATE” (priority 2018, published 2021).
Entries after “also recorded” stand apart in the source; their conditions may differ.

Assays:
[1] = system: uric acid-induced gouty arthritis pain in the rat; assay: pain-induced functional impairment model in the rat (PIFIR), antinociceptive effects; type: in vivo, male Wistar rats; settings: for Maximum efficacy (ABC: X ± E.E.): ABC of the FI % temporal curve over 4 h, at the dose that generates the maximum efficacy (S-ketorolac tromethamine 3.16 mg/kg, tramadol chlorhydrate 56.23 mg/kg); for Relative efficacy: compared to S-ketorolac tromethamine (= 1.0); for antinociceptive effects, dose dependence: single acute oral administration, evaluated for 4 hours, tramadol 5.6 to 56.2 mg/kg, S-ketorolac tromethamine 0.01 to 3.16 mg/kg
Text: In order to determine the antinociceptive effects, male Wistar rats weighing between 180 and 200 g were employed. These were handled in accordance with the Official Mexican Norm (NOM-062-ZOO-1999) and in accordance with the general principles of lab animal care (NIH publication #85-23, revised in 1985). The minimum number of test animals were used (6 animals per experimental point for antinociceptive effects, motor coordination, and gastrointestinal damage, and 10 animals per experimental point for adverse effects: lethal dose 50). The animals were kept in a room with alternate cycles of light/darkness. Twelve hours before the antinociceptive tests, the food was withdrawn, and they only had free access to water. All of these experiments were conducted during the light phase.
The analgesics were dissolved or suspended in carboxymethyl cellulose at 0.5% and administered orally in a volume of 4 ml/kg.
This methodology is commonly known as “pain-induced functional impairment model in the rat” (PIFIR). This methodology was used to determine and compare the antinociceptive effects of these analgesics.
The methodology of the PIFIR experimental procedure is briefly described below: The animals were anesthetized in an anesthesia chamber saturated with isoflurane vapors. The gouty arthritis was induced by applying an intra-articular injection (i.art.) with 0.05 ml of uric acid suspended in mineral oil (at 30%) in the right hind limb, exactly in the femur-tibia-patella joint.
A 1 ml glass syringe with a No. 22, 4 mm long needle was used for the i.art. injection. Immediately afterward, an electrode was fixed on each hind limb in the middle of the plantar calluses. After the rats recovered from the anesthesia, they were placed in a 30 cm diameter stainless steel rotating cylinder. The cylinder was rotated at 4 rpm, forcing the rats to walk for 2 minutes every half hour for a total of 6.5 hours (2.5 h to generate the gouty arthritis and 4 h to evaluate the antinociceptive effects of the analgesics). The variable measured was the time of contact of each one of the hind limbs of the rats in the cylinder.
When the electrode and the cylinder make contact, a circuit closes, and the relationship between the time of contact of the extremity to which the uric acid was administered as compared to the one to which uric acid was not administered was registered in a computer. The percentage functionality indexes (FI %) are calculated with these variables. Once the total dysfunction (FI=0%) was produced due to the effect of the uric acid, the corresponding doses of each analgesic were administered individually or in combination.
The medium and standard error of the evaluation of the antinociceptive effects are presented in all of the graphics as from time “0,” which is the moment at which the arthritis is completely developed in the rat and is the precise moment of the administration of tramadol chlorhydrate and S-ketorolac tromethamine.
With the administration of these doses, the complete doses-responses of S-ketorolac tromethamine and tramadol chlorhydrate were plotted separately in order to perform a comparative analysis for efficacy and potency. In the case of tramadol chlorhydrate, the curves were obtained through a single and acute 4-hour administration in doses with algorithmic increases (of 5.6 to 56.2 mg/kg), (FIG. 1). The S-ketorolac tromethamine temporal curves were obtained through acute administration evaluated for 4 hours in doses with algorithmic increases (from 0.01 to 3.16 mg/kg).
After this, 24 different combinations of S-ketorolac tromethamine and tramadol chlorhydrate were analyzed in order to detect the type of interaction and the most significant combinations due to the degree of efficacy or the degree of antinociceptive potency.

[2] = background statement, cited from earlier work
[3] = pharmacological / analgesic potency relative to comparators (no method given); type: in vivo

SMILES: COc1cccc([C@@]2(O)CCCC[C@@H]2CN(C)C)c1.Cl (relative stereo) [Tramadol chlorhydrate, (1R,2R)-rel-2-[(dimethylamino)methyl]-1-(3-methoxyphenyl)cyclohexanol]
- Maximum efficacy (ABC: X ± E.E.) ([1]; po): 216.7 ± 19.1 au
- Maximum efficacy (ABC: X ± E.E.) ([1]; po, listed as tramadol chlorhydrate): 216.66 au
- efficacy relative to that exhibited by S-ketorolac tromethamine ([1]; PIFIR, po): 70%
- Relative efficacy ([1]; PIFIR, po): 0.70
- antinociceptive effects, dose dependence [1]: doses-dependent antinociceptive effects; also recorded: antinociceptive effects that are dependent on the gouty arthritis-type pain dose

SMILES: O=C(c1ccccc1)c1ccc2n1CC[C@@H]2C(=O)O [S-ketorolac tromethamine, 2-amino-2-hydroximethyl-1,3 propanediol (1:1) S-(−)-5-benzoyl-2,3-dihydro-1H-pyrrolizine-1-carboxylate]
- potency ratio of the S (−) enantiomer ([2]; comparator not clearly printed): approximately 60 times
- analgesic effect relative to the racemic form [2]: almost double that of the racemic form
- potency relative to AA ([3]; times more potent than AA): 1037 times
- potency relative to morphine ([3]; times more potent than morphine): 82 times
- potency relative to rac-ketorolac ([3]; times more potent than rac-ketorolac): 3.3 times
- Maximum efficacy (ABC: X ± E.E.) ([1]; po): 310.5 ± 13.5 au
- Relative efficacy ([1]; PIFIR, po): 1.0
- antinociceptive effects, dose dependence [1]: doses-dependent antinociceptive effects; also recorded: antinociceptive effects that are dependent on the gouty arthritis-type pain dose
